From patent US9931347B2, “Pharmaceutical compound” (IOmet Pharma Ltd., priority 2013, dated 2018)

What was measured:
[1] = molecular target: T1, IDO (SKOV3 human ovarian adenocarcinoma cells, IFN-γ induced) (Homo sapiens, UniProt P14902); test: SKOV3 Kynurenine cell based assay; conditions: IDO induced by 500 ng/ml IFN-γ, 500 μM L-tryptophan, 48 hours
T1 construct: IDO expression was induced in the SKOV3 cells by the addition of 500 ng/ml IFN-γ; endogenous in cells; host or cells: SKOV3 human ovarian adenocarcinoma cells, induced with IFN-γ
T1 sequence (P14902 whole entry): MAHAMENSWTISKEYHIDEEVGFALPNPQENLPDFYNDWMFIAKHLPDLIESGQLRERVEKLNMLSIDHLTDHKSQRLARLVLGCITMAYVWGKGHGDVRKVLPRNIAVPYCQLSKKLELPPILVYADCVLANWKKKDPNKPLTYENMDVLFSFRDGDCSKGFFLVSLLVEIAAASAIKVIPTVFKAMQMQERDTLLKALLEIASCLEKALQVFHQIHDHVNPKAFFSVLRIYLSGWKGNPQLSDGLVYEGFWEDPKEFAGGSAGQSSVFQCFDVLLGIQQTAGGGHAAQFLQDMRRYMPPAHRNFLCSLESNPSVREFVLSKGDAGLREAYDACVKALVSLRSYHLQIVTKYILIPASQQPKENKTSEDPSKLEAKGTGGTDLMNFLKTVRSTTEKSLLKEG
Method: (§1) Exemplary compounds of the invention were prepared, and tested to determine their effect as TDO and/or IDO inhibitors. Two different assays were employed: 1. a cell-based assay for detecting the effect of test compounds on kynurenine production in two different cancer cell types. This assay utilised cancer cells which expressed either TDO or IDO and as such was used as a means of testing compound activity at these two enzymes in a cell-based context. 2. a TDO and IDO biochemical coupled assay which utilised recombinantly produced and purified TDO and IDO enzymes in combination with the enzyme formamidase. This coupled enzyme system allowed conversion of N-formylkynurenine produced by TDO or IDO activity to kynurenine which was then quantified by fluorescence following addition of Erhlich's Reagent The protocols for these are set out below.
(§2) A172 (human glioblastoma) and SKOV3 (human ovarian adenocarcinoma) cells were seeded in a 96 well plate at 30,000 or 40,000 cells per well respectively in phenol red-free RPMI supplemented with 10% FCS, 2 mM L-glutamine and 500 μM L-tryptophan. IDO expression was induced in the SKOV3 cells by the addition of 500 ng/ml IFN-γ. Cells were incubated at 37° C. with or without the addition of test compound. After 48 hours, the cells were removed by centrifugation and Erhlich's reagent was added to the supernatant.

[2] = molecular target: T2, TDO (A172 human glioblastoma cells) (Homo sapiens, UniProt P48775); test: A172 Kynurenine cell based assay; conditions: 500 μM L-tryptophan, 48 hours, kynurenine by Erhlich's reagent
T2 construct: This assay utilised cancer cells which expressed either TDO or IDO; endogenous in cells; host or cells: A172 human glioblastoma cells
T2 sequence (P48775 whole entry): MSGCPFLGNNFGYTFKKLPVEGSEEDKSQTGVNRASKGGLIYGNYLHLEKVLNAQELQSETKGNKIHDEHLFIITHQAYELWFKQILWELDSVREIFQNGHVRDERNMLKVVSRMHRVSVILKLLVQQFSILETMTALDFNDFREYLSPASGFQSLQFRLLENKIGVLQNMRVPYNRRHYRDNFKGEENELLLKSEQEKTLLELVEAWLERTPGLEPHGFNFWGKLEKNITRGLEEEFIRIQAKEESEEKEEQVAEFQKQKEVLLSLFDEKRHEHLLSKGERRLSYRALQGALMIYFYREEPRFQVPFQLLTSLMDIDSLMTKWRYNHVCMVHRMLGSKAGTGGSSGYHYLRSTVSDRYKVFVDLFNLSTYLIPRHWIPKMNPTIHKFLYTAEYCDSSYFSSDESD
Method: as §1
as §2, with “supernatant. The Erhlich's reagent was incubated for 5 minutes before the absorbance was read at 490 nm.” for “supernatant.”

Row | SKOV3 Kynurenine cell based assay pIC50 [1] | A172 Kynurenine cell based assay pIC50 [2] | SMILES
1 | + (+ = pIC50 4.00-4.99) | + (+ = pIC50 4.00-4.99) | CC(=O)N1CCC(c2c[nH]c3cnccc23)CC1 [Compound 203]
2 | + (+ = pIC50 4.00-4.99) | + (+ = pIC50 4.00-4.99) | Cc1ccc2c(C3CCN(S(C)(=O)=O)CC3)c[nH]c2c1 [Compound 207]
3 | + (+ = pIC50 4.00-4.99) | + (+ = pIC50 4.00-4.99) | CC(=O)N1CCC(c2c[nH]c3ccc(OCc4ccccc4)cc23)CC1 [Compound 208]
4 | + (+ = pIC50 4.00-4.99) | + (+ = pIC50 4.00-4.99) | O=S(=O)(N1CCCC1)N1CCC(c2c[nH]c3ccccc23)CC1 [Compound 213]
5 | + (+ = pIC50 4.00-4.99) | ++ (++ = pIC50 5.00-5.99) | CS(=O)(=O)N1CC=C(c2c[nH]c3cc(F)cc(F)c23)CC1 [Compound 215]
6 | + (+ = pIC50 4.00-4.99) | + (+ = pIC50 4.00-4.99) | CCN(CC)S(=O)(=O)N1CCC(c2c[nH]c3ccccc23)CC1 [Compound 217]
7 | + (+ = pIC50 4.00-4.99) | + (+ = pIC50 4.00-4.99) | CC(=O)N1CCC(c2c[nH]c3cc(OCc4ccccc4)ccc23)CC1 [Compound 221]
8 | + (+ = pIC50 4.00-4.99) | + (+ = pIC50 4.00-4.99) | CC(=O)N1CC=C(c2c[nH]c3cc(C(F)(F)F)ccc23)CC1 [Compound 223]
9 | + (+ = pIC50 4.00-4.99) | + (+ = pIC50 4.00-4.99) | CC(=O)N1CC=C(c2c[nH]c3ccc(C#N)cc23)CC1 [Compound 225]
10 | + (+ = pIC50 4.00-4.99) | ++ (++ = pIC50 5.00-5.99) | CC(=O)N1CC=C(c2c[nH]c3cc(Cl)c(F)cc23)CC1 [Compound 228]
11 | + (+ = pIC50 4.00-4.99) | + (+ = pIC50 4.00-4.99) | CC(=O)N1CC=C(c2c[nH]c3ccc(C(F)(F)F)cc23)CC1 [Compound 229]
12 | + (+ = pIC50 4.00-4.99) | + (+ = pIC50 4.00-4.99) | CC(=O)N1CC=C(c2c[nH]c3c(F)cc(F)cc23)CC1 [Compound 231]
13 | + (+ = pIC50 4.00-4.99) | + (+ = pIC50 4.00-4.99) | CC(=O)N1CCC(c2c[nH]c3cc(C(F)(F)F)ccc23)CC1 [Compound 232]
14 | + (+ = pIC50 4.00-4.99) | + (+ = pIC50 4.00-4.99) | CC(=O)N1CCC(c2c[nH]c3ccc(C#N)cc23)CC1 [Compound 233]
15 | + (+ = pIC50 4.00-4.99) | + (+ = pIC50 4.00-4.99) | CS(=O)(=O)N1CCC(c2c[nH]c3cc(C(F)(F)F)ccc23)CC1 [Compound 234]
16 | + (+ = pIC50 4.00-4.99) | + (+ = pIC50 4.00-4.99) | CC(=O)N1CCC(c2c[nH]c3ccc(Cl)cc23)CC1 [Compound 238]
17 | ++ (++ = pIC50 5.00-5.99) | ++ (++ = pIC50 5.00-5.99) | CS(=O)(=O)N1CCC(c2c[nH]c3ccc(Cl)cc23)CC1 [Compound 239]
18 | ++ (++ = pIC50 5.00-5.99) | + (+ = pIC50 4.00-4.99) | CS(=O)(=O)N1CCC(c2c[nH]c3ccc(C(F)(F)F)cc23)CC1 [Compound 240]
19 | + (+ = pIC50 4.00-4.99) | + (+ = pIC50 4.00-4.99) | CC(=O)N1CCC(c2c[nH]c3ccc(C(F)(F)F)cc23)CC1 [Compound 241]
20 | + (+ = pIC50 4.00-4.99) | + (+ = pIC50 4.00-4.99) | CS(=O)(=O)N1CCC(c2c[nH]c3cc(Cl)c(F)cc23)CC1 [Compound 243]
21 | + (+ = pIC50 4.00-4.99) | + (+ = pIC50 4.00-4.99) | CS(=O)(=O)N1CCC(c2c[nH]c3cc(Cl)ccc23)CC1 [Compound 244]

Row | SKOV3 Kynurenine cell based assay pIC50 [1] | A172 Kynurenine cell based assay pIC50 [2] | SMILES
22 | + (+ = pIC50 4.00-4.99) | ++ (++ = pIC50 5.00-5.99) | CC(=O)N1CCC(c2c[nH]c3cc(Cl)ccc23)CC1 [Compound 245]
23 | + (+ = pIC50 4.00-4.99) | ++ (++ = pIC50 5.00-5.99) | CS(=O)(=O)N1CC=C(c2c[nH]c3cc(F)c(Cl)cc23)CC1 [Compound 248]
24 | + (+ = pIC50 4.00-4.99) | ++ (++ = pIC50 5.00-5.99) | CN(C)S(=O)(=O)N1CCC(c2c[nH]c3cc(F)ccc23)CC1 [Compound 250]
25 | + (+ = pIC50 4.00-4.99) | + (+ = pIC50 4.00-4.99) | CC(=O)N1CCC(c2c[nH]c3cc(F)c(Cl)cc23)CC1 [Compound 252]
26 | + (+ = pIC50 4.00-4.99) | + (+ = pIC50 4.00-4.99) | CS(=O)(=O)N1CCC(c2c[nH]c3cc(F)c(Cl)cc23)CC1 [Compound 253]
27 | + (+ = pIC50 4.00-4.99) | + (+ = pIC50 4.00-4.99) | CN(C)CCOc1ccc2c(C3=CCN(S(C)(=O)=O)CC3)c[nH]c2c1 [Compound 254]
28 | + (+ = pIC50 4.00-4.99) | ++ (++ = pIC50 5.00-5.99) | CC(=O)N1CC=C(c2c[nH]c3cc(OCCN(C)C)ccc23)CC1 [Compound 255]
29 | + (+ = pIC50 4.00-4.99) | ++ (++ = pIC50 5.00-5.99) | CCCC(=O)N1CCC(c2c[nH]c3cc(F)ccc23)CC1 [Compound 270]
30 | + (+ = pIC50 4.00-4.99) | + (+ = pIC50 4.00-4.99) | COc1cccc(C(=O)N2CCC(c3c[nH]c4cc(F)ccc34)CC2)n1 [Compound 273]
31 | + (+ = pIC50 4.00-4.99) | + (+ = pIC50 4.00-4.99) | O=C(C1CC(=O)N(C2CCCC2)C1)N1CCC(c2c[nH]c3cc(F)ccc23)CC1 (stereo not drawn) [Compound 276]
32 | + (+ = pIC50 4.00-4.99) | + (+ = pIC50 4.00-4.99) | CCCc1cc(C(=O)N2CCC(c3c[nH]c4cc(F)ccc34)CC2)[nH]n1 [Compound 277]
33 | + (+ = pIC50 4.00-4.99) | + (+ = pIC50 4.00-4.99) | Cn1nc(-c2ccccc2)cc1C(=O)N1CCC(c2c[nH]c3cc(F)ccc23)CC1 [Compound 279]
34 | + (+ = pIC50 4.00-4.99) | ++ (++ = pIC50 5.00-5.99) | CCCn1cc(C(=O)N2CCC(c3c[nH]c4cc(F)ccc34)CC2)c(C)n1 [Compound 280]
35 | + (+ = pIC50 4.00-4.99) | + (+ = pIC50 4.00-4.99) | O=C(N1CCC(c2c[nH]c3cc(F)ccc23)CC1)C1(c2ccccc2)CC1 [Compound 281]
36 | + (+ = pIC50 4.00-4.99) | + (+ = pIC50 4.00-4.99) | COCCN1CC(C(=O)N2CCC(c3c[nH]c4cc(F)ccc34)CC2)CC1=O (stereo not drawn) [Compound 283]
37 | + (+ = pIC50 4.00-4.99) | + (+ = pIC50 4.00-4.99) | O=C(CC1CC1)N1CCC(c2c[nH]c3cc(F)ccc23)CC1 [Compound 284]
38 | + (+ = pIC50 4.00-4.99) | ++ (++ = pIC50 5.00-5.99) | CC(C)S(=O)(=O)N1CCC(c2c[nH]c3cc(F)ccc23)CC1 [Compound 289]
39 | + (+ = pIC50 4.00-4.99) | ++ (++ = pIC50 5.00-5.99) | O=S(=O)(C1CCCC1)N1CCC(c2c[nH]c3cc(F)ccc23)CC1 [Compound 291]
40 | + (+ = pIC50 4.00-4.99) | ++ (++ = pIC50 5.00-5.99) | O=S(=O)(Cc1ccccc1)N1CCC(c2c[nH]c3cc(F)ccc23)CC1 [Compound 293]
41 | + (+ = pIC50 4.00-4.99) | ++ (++ = pIC50 5.00-5.99) | O=S(=O)(N1CCC(c2c[nH]c3cc(F)ccc23)CC1)C(F)(F)F [Compound 296]
42 | + (+ = pIC50 4.00-4.99) | ++ (++ = pIC50 5.00-5.99) | CC(=O)N1CCN(c2c[nH]c3ccccc23)CC1(C)C [Compound 299]
